In US9815835B2, “Substituted polycyclic carbamolypyridone derivative” (priority 2009, dated 2017):
Where two headings read alike, the source gives them in different places.

System: influenza virus
Assay: microbe, parasite or virus in culture
Format: cell-based, influenza virus (MDBK or MDCK cells)
Conditions: unidentified influenza virus, 72 h
[1] = read-out: CPE EC50, effective concentration to achieve 50% CPE inhibition, 3 days incubation, WST-8

Structure (SMILES) | EC50 [1] [nM] | EC50 (read-out: CPE EC50) [nM]
O=C(O)c1cn2c(c(O)c1=O)C(=O)N(Cc1ccc(F)cc1F)C[C@@H]2C(c1ccccc1)c1ccccc1 [Example 16] | 632 | –
CCCN1C[C@H](C(c2ccccc2)c2ccccc2)n2cc(C(=O)O)c(=O)c(O)c2C1=O [Example 181] | 349 | –
CC(C)=CCN1C[C@H](C(c2ccccc2)c2ccccc2)n2cc(C(=O)O)c(=O)c(O)c2C1=O [Example 182] | 562 | –
CC(C)OCCN1C[C@H](C(c2ccccc2)c2ccccc2)n2cc(C(=O)O)c(=O)c(O)c2C1=O [Example 184] | 403 | –
CCC(C)N1C[C@H](C(c2ccccc2)c2ccccc2)n2cc(C(=O)O)c(=O)c(O)c2C1=O (stereo partly drawn) [Example 186] | 159 | –
CCCC(C)N1C[C@H](C(c2ccccc2)c2ccccc2)n2cc(C(=O)O)c(=O)c(O)c2C1=O (stereo partly drawn) [Example 187] | 282 | –
CC(C)N1CN(Cc2ccc(Cl)c(Cl)c2)n2ccc(=O)c(O)c2C1=O [Example 199] | 2720 | –
CC(N1CN(C(c2ccccc2)c2ccccc2Cl)n2ccc(=O)c(O)c2C1=O)C(F)(F)F (stereo not drawn) [Example 242] | 59 | –
COCCN1CN(C2c3ccccc3CCc3ccccc32)n2ccc(=O)c(O)c2C1=O [Example 258] | 28 | –
CC(=O)OCC(C)N1CN(C2c3ccccc3CCc3ccccc32)n2ccc(=O)c(O)c2C1=O (stereo not drawn) [Example 261] | 47 | –
O=C1c2c(O)c(=O)ccn2N(C2c3ccccc3CCc3ccccc32)CN1CCF [Example 262] | 38 | –
O=C1c2c(O)c(=O)ccn2N(C2c3ccccc3CCc3ccccc32)CN1CC(F)(F)F [Example 263] | 75 | –
CC(C)(C)N1CN(C2c3ccccc3CCc3ccccc32)n2ccc(=O)c(O)c2C1=O [Example 265] | 36 | –
COCCCN1CN(C2c3ccccc3CCc3ccccc32)n2ccc(=O)c(O)c2C1=O [Example 267] | 63 | –
CS(=O)(=O)CCN1CN(C2c3ccccc3CCc3ccccc32)n2ccc(=O)c(O)c2C1=O [Example 269] | 417 | –
Cc1noc(CN2CN(C3c4ccccc4CCc4ccccc43)n3ccc(=O)c(O)c3C2=O)n1 [Example 270] | 129 | –
CC(=O)OCCN1CN(C2c3ccccc3CCc3ccccc32)n2ccc(=O)c(O)c2C1=O [Example 276] | 89 | –
CC(C)N1CN(C2c3cc(F)ccc3CCc3ccc(F)cc32)n2ccc(=O)c(O)c2C1=O [Example 279] | 119 | –
CC(C)N1CN(C2c3ccccc3CCc3c(Cl)cccc32)n2ccc(=O)c(O)c2C1=O (stereo not drawn) [Example 282] | 29 | –
CC(C)N1CN(C2c3ccc(F)cc3CCc3cc(F)ccc32)n2ccc(=O)c(O)c2C1=O [Example 284] | 19 | –
CC(=O)N1CC[C@@H](N2CN(C3c4ccccc4CSc4ccccc43)n3ccc(=O)c(O)c3C2=O)C1 (stereo partly drawn) [Example 289] | 419 | –
CN1CCC(CN2CN(C3c4ccccc4CSc4ccccc43)n3ccc(=O)c(O)c3C2=O)CC1 (stereo not drawn) [Example 292] | 2230 | –
O=C1c2c(O)c(=O)ccn2N(C2c3ccccc3CSc3ccccc32)CN1CCOC(F)(F)F (stereo not drawn) [Example 297] | 33 | –
O=C1c2c(O)c(=O)ccn2N(C2c3ccccc3CSc3ccccc32)CN1CCCF (stereo not drawn) [Example 298] | 12 | –
CC(C)N1CN(C2c3ccccc3CSc3ccccc32)n2ccc(=O)c(O)c2C1=O (stereo not drawn) [Example 301] | 17 | –

Structure (SMILES) | EC50 [1] [nM] | EC50 (read-out: CPE EC50) [nM]
O=C1c2c(O)c(=O)ccn2N(C2c3ccccc3CSc3ccccc32)CN1CC(F)(F)F (stereo not drawn) [Example 306] | 21 | –
CCOCCN1CN(C2c3ccccc3CSc3ccccc32)n2ccc(=O)c(O)c2C1=O (stereo not drawn) [Example 312] | 29 | –
COCC(COC)N1CN(C2c3ccccc3CSc3ccccc32)n2ccc(=O)c(O)c2C1=O (stereo not drawn) [Example 318] | 15 | –
CC(=O)OCCN1CN(C2c3ccccc3CSc3ccccc32)n2ccc(=O)c(O)c2C1=O (stereo not drawn) [Example 325] | 25 | –
CC(C)N1CN(C2c3ccccc3CSc3ccc(Cl)cc32)n2ccc(=O)c(O)c2C1=O (stereo not drawn) [Example 328] | 168 | –
COCC(COC)N1CN(C2c3cc(F)ccc3CSc3ccc(F)cc32)n2ccc(=O)c(O)c2C1=O (stereo not drawn) [Example 340] | 27 | –
CC(N1CN(C2c3ccccc3CSc3c(F)cccc32)n2ccc(=O)c(O)c2C1=O)C(F)(F)F (stereo not drawn) [Example 342] | 26 | –
CC(C)N1CN(C2c3ccccc3CSc3c(F)cccc32)n2ccc(=O)c(O)c2C1=O (stereo not drawn) [Example 351] | 19 | –
CN1CN(C2c3ccccc3CSc3c(F)cccc32)n2ccc(=O)c(O)c2C1=O (stereo not drawn) [Example 354] | 83 | –
CC(CO)N1CN(C2c3ccccc3CCc3ccccc32)n2ccc(=O)c(O)c2C1=O (stereo not drawn) [Example 362] | 67 | –
O=C1c2c(O)c(=O)ccn2N(C2c3ccccc3CCc3ccccc32)CN1CC(O)CO (stereo not drawn) [Example 364] | 515 | –
CC(C)C[C@H](CO)N1CN(C2c3ccccc3CSc3ccccc32)n2ccc(=O)c(O)c2C1=O (stereo partly drawn) [Example 374] | 154 | –
CC(C)C[C@@H](CO)N1CN(C2c3ccccc3CSc3ccccc32)n2ccc(=O)c(O)c2C1=O (stereo partly drawn) [Example 377] | 22 | –
CC(C)(C)[C@@H](CO)N1CN(C2c3ccccc3CSc3ccccc32)n2ccc(=O)c(O)c2C1=O (stereo partly drawn) [Example 380] | 18 | –
CC(C)(C)[C@H](CO)N1CN(C2c3ccccc3CSc3ccccc32)n2ccc(=O)c(O)c2C1=O (stereo partly drawn) [Example 381] | 34 | –
O=C1c2c(O)c(=O)ccn2N(C2c3ccccc3CSc3c(Cl)cccc32)CN1CCO (stereo not drawn) [Example 382] | 94 | –
CC(C)N1CN(C2c3ccccc3COc3ccccc32)n2ccc(=O)c(O)c2C1=O (stereo not drawn) [Example 391] | 71 | –
COCCN1CN(C2c3ccccc3COc3cc(F)ccc32)n2ccc(=O)c(O)c2C1=O (stereo not drawn) [Example 397] | 77 | –
COCCN1CN(C2c3ccccc3COc3ccc(F)cc32)n2ccc(=O)c(O)c2C1=O (stereo not drawn) [Example 401] | 133 | –
COCCN1CN(C2c3cc(F)ccc3COc3cc(F)ccc32)n2ccc(=O)c(O)c2C1=O (stereo not drawn) [Example 402] | 81 | –
CC(N1CN(C2c3ccccc3COc3c(F)cccc32)n2ccc(=O)c(O)c2C1=O)C(F)(F)F (stereo not drawn) [Example 406] | 22 | –
CC(C)N1CN(C2c3ccc(Cl)cc3COc3ccccc32)n2ccc(=O)c(O)c2C1=O (stereo not drawn) [Example 409] | 29 | –
C[C@@H](N1CN(C2c3ccccc3COc3ccc(F)cc32)n2ccc(=O)c(O)c2C1=O)C(F)(F)F (stereo partly drawn) [Example 410] | 14 | –
C[C@@H](N1CN([C@H]2c3ccccc3CSc3ccccc32)n2ccc(=O)c(O)c2C1=O)C(F)(F)F [Example 413] | 5 | –
C[C@H](N1CN([C@@H]2c3ccccc3CSc3ccccc32)n2ccc(=O)c(O)c2C1=O)C(F)(F)F [Example 415] | 22 | –

Structure (SMILES) | EC50 [1] [nM] | EC50 (read-out: CPE EC50) [nM]
C[C@H](N1CN([C@H]2c3ccccc3CSc3ccccc32)n2ccc(=O)c(O)c2C1=O)C(F)(F)F [Example 416] | 19 | –
C[C@@H](N1CN([C@H]2c3ccccc3COc3c(F)cccc32)n2ccc(=O)c(O)c2C1=O)C(F)(F)F [Example 425] | 47 | –
C[C@@H](N1CN([C@H]2c3ccccc3SCc3cccc(Cl)c32)n2ccc(=O)c(O)c2C1=O)C(F)(F)F [Example 430] | 29 | –
C[C@H](N1CN([C@@H]2c3ccccc3SCc3cccc(Cl)c32)n2ccc(=O)c(O)c2C1=O)C(F)(F)F [Example 431] | 11 | –
C[C@@H](N1CN([C@H]2c3ccc(C(F)(F)F)cc3CSc3ccccc32)n2ccc(=O)c(O)c2C1=O)C(F)(F)F [Example 432] | 62 | –
C[C@@H](N1CN([C@@H]2c3cc(Cl)ccc3CSc3ccccc32)n2ccc(=O)c(O)c2C1=O)C(F)(F)F [Example 443] | 4 | –
C[C@@H](N1CN([C@H]2c3ccccc3CSc3c(Cl)cccc32)n2ccc(=O)c(O)c2C1=O)C(F)(F)F [Example 450] | 14 | –
C[C@H](N1CN([C@H]2c3ccccc3CSc3c(F)cccc32)n2ccc(=O)c(O)c2C1=O)C(F)(F)F [Example 453] | 49 | –
C[C@@H](N1CN([C@H]2c3ccccc3CSc3ccc(Cl)cc32)n2ccc(=O)c(O)c2C1=O)C(F)(F)F [Example 455] | 71 | –
C[C@@H](N1CN([C@H]2c3ccccc3CSc3cc(F)ccc32)n2ccc(=O)c(O)c2C1=O)C(F)(F)F [Example 458] | 14 | –
C[C@H](N1CN([C@H]2c3ccccc3CSc3ccc(F)cc32)n2ccc(=O)c(O)c2C1=O)C(F)(F)F [Example 461] | 74 | –
C[C@@H](N1CN([C@H]2c3cc(F)ccc3CSc3ccc(F)cc32)n2ccc(=O)c(O)c2C1=O)C(F)(F)F [Example 462] | 11 | –
C[C@H](N1CN([C@H]2c3ccccc3CSc3ccc(Cl)cc32)n2ccc(=O)c(O)c2C1=O)C(F)(F)F [Example 475] | 441 | –
CC(CN(C)C)N1CN(C2c3ccccc3CCc3ccccc32)n2ccc(=O)c(O)c2C1=O (stereo not drawn) [Example 479] | 64 | –
CC(CN(C)C)N1CN(C2c3ccccc3CSc3ccccc32)n2ccc(=O)c(O)c2C1=O (stereo not drawn) [Example 480] | 84 | –
CC(CN(C)C)N1CN(C2c3ccccc3CSc3c(Cl)cccc32)n2ccc(=O)c(O)c2C1=O (stereo not drawn) [Example 481] | 86 | –
CC(CN1CCOCC1)N1CN(C2c3ccccc3CSc3ccccc32)n2ccc(=O)c(O)c2C1=O (stereo not drawn) [Example 483] | 27 | –
CC(C)N1CN(C2c3ccccc3CCc3ccccc32)n2cc(C(=O)O)c(=O)c(O)c2C1=O [Example 491] | 99 | –
CC(C)N1CN(C2c3ccccc3CSc3ccccc32)n2cc(C(=O)O)c(=O)c(O)c2C1=O (stereo not drawn) [Example 492] | 160 | –
CCN1C(=O)c2c(O)c(=O)ccn2C(C2c3ccccc3CSc3ccccc32)N1CC (stereo not drawn) [Example 502] | 142 | –
O=C(O)c1cn2c(c(O)c1=O)C(=O)N1CCCCN1C2C(c1ccccc1)c1ccccc1 (stereo not drawn) [Example 507] | 197 | –
CSCC1N(C(C)C)C(=O)c2c(O)c(=O)ccn2N1C1c2ccccc2CCc2ccccc21 (stereo not drawn) [Example 514] | 18 | –
CCCC1N(C(C)C)C(=O)c2c(O)c(=O)ccn2N1C1c2ccccc2CCc2ccccc21 (stereo not drawn) [Example 518] | 24 | –
COCCCC1N(C(C)C)C(=O)c2c(O)c(=O)ccn2N1C1c2ccccc2CCc2ccccc21 (stereo not drawn) [Example 522] | 14 | –
COCCCC1N(C(C)C)C(=O)c2c(O)c(=O)ccn2N1C1c2cccc(F)c2CCc2c(F)cccc21 (stereo not drawn) [Example 523] | – | 14
